Earlier results on one molecule are cited in US20140073694A1, “CYSTAMINE ANALOGUES FOR THE TREATMENT OF PARKINSON'S DISEASE” (UNIVERSITE LAVAL, priority 2011, published 2014).

The data set has as its system Huntington's disease patients. The settings on record: cited from earlier work.

Regarding `NCCS.O=C(O)C(O)C(O)C(=O)O` (centres unmarked) [cysteamine bitartrate], the clinical efficacy entry was “clinical efficacy was not demonstrated”. Also, the tolerable dose (dose escalation 10 to 70 mg/kg per day) was 20 mg/kg per day.
